Numbers after ± are expanded uncertainties.
Conditions: Liquid

CCCCn1cc[n+](C)c1.F[P-](F)(F)(F)(F)F [1-butyl-3-methylimidazolium hexafluorophosphate]
mass density (293.48 K, 1000 kPa): 1369.9 ± 0.8 kg/m3
mass density (293.49 K, 101.33 kPa): 1369.8 ± 0.9 kg/m3
mass density (293.49 K, 20000 kPa): 1378.3 ± 1.9 kg/m3
mass density (293.5 K, 10000 kPa): 1374 ± 1.3 kg/m3
mass density (293.5 K, 40000 kPa): 1385.9 ± 3.1 kg/m3
mass density (293.51 K, 5000 kPa): 1371.7 ± 1 kg/m3
mass density (293.51 K, 30000 kPa): 1382.2 ± 2.5 kg/m3
mass density (302.73 K, 101.33 kPa): 1362 ± 0.9 kg/m3
mass density (312.86 K, 101.33 kPa): 1353.5 ± 0.9 kg/m3
mass density (322.28 K, 101.33 kPa): 1345.5 ± 0.9 kg/m3
mass density (322.3 K, 10000 kPa): 1350.6 ± 1.2 kg/m3
mass density (322.3 K, 20000 kPa): 1355.2 ± 1.8 kg/m3
mass density (322.31 K, 1000 kPa): 1346.2 ± 0.7 kg/m3
mass density (322.31 K, 40000 kPa): 1363.3 ± 2.9 kg/m3
mass density (322.33 K, 5000 kPa): 1348.2 ± 0.9 kg/m3
mass density (322.33 K, 30000 kPa): 1359.3 ± 2.4 kg/m3
mass density (332.73 K, 101.33 kPa): 1337 ± 0.9 kg/m3
mass density (342.5 K, 101.33 kPa): 1328.7 ± 0.8 kg/m3
mass density (352.29 K, 101.33 kPa): 1320.9 ± 0.8 kg/m3
mass density (352.3 K, 40000 kPa): 1339.8 ± 2.8 kg/m3
mass density (352.31 K, 1000 kPa): 1321.6 ± 0.7 kg/m3
mass density (352.31 K, 10000 kPa): 1326.3 ± 1.1 kg/m3
mass density (352.31 K, 20000 kPa): 1331.2 ± 1.7 kg/m3
mass density (352.32 K, 5000 kPa): 1323.7 ± 0.9 kg/m3
mass density (352.34 K, 30000 kPa): 1335.6 ± 2.2 kg/m3
mass density (373.3 K, 5000 kPa): 1306.6 ± 0.8 kg/m3
mass density (373.31 K, 10000 kPa): 1309.4 ± 1.1 kg/m3
mass density (373.32 K, 30000 kPa): 1319 ± 2.1 kg/m3
mass density (373.33 K, 101.33 kPa): 1303.9 ± 0.8 kg/m3
mass density (373.33 K, 1000 kPa): 1304.4 ± 0.7 kg/m3
mass density (373.33 K, 40000 kPa): 1323.3 ± 2.6 kg/m3
mass density (373.34 K, 20000 kPa): 1314.3 ± 1.6 kg/m3
mass density (391.27 K, 10000 kPa): 1294.7 ± 1.1 kg/m3
mass density (391.28 K, 30000 kPa): 1304.7 ± 2 kg/m3
mass density (391.3 K, 101.33 kPa): 1289.1 ± 0.8 kg/m3
mass density (391.3 K, 5000 kPa): 1292 ± 0.8 kg/m3
mass density (391.31 K, 20000 kPa): 1300 ± 1.5 kg/m3
mass density (391.31 K, 40000 kPa): 1309.1 ± 2.5 kg/m3
mass density (391.32 K, 1000 kPa): 1289.5 ± 0.6 kg/m3
mass density (414.91 K, 10000 kPa): 1275.6 ± 1 kg/m3
mass density (414.92 K, 20000 kPa): 1281 ± 1.5 kg/m3
mass density (414.92 K, 40000 kPa): 1290.5 ± 2.4 kg/m3
mass density (414.93 K, 101.33 kPa): 1269.7 ± 0.7 kg/m3
mass density (414.93 K, 5000 kPa): 1272.6 ± 0.8 kg/m3
mass density (414.93 K, 30000 kPa): 1285.9 ± 1.9 kg/m3
mass density (414.94 K, 1000 kPa): 1270.2 ± 0.6 kg/m3

CCCCn1cc[n+](C)c1.F[B-](F)(F)F [1-butyl-3-methylimidazolium tetrafluoroborate]
mass density (292.94 K, 101.33 kPa): 1204.8 ± 2.7 kg/m3
mass density (293.49 K, 10000 kPa): 1208.5 ± 2.7 kg/m3
mass density (293.49 K, 30000 kPa): 1216.5 ± 4.1 kg/m3
mass density (293.49 K, 40000 kPa): 1220.4 ± 4.9 kg/m3
mass density (293.5 K, 1000 kPa): 1204.7 ± 2.1 kg/m3
mass density (293.5 K, 20000 kPa): 1212.6 ± 3.4 kg/m3
mass density (293.51 K, 5000 kPa): 1206.5 ± 2.4 kg/m3
mass density (302.8 K, 101.33 kPa): 1197.5 ± 2.6 kg/m3
mass density (312.79 K, 101.33 kPa): 1190.2 ± 2.6 kg/m3
mass density (322.3 K, 10000 kPa): 1187.7 ± 2.6 kg/m3
mass density (322.3 K, 40000 kPa): 1200.4 ± 4.5 kg/m3
mass density (322.31 K, 1000 kPa): 1183.6 ± 2 kg/m3
mass density (322.31 K, 20000 kPa): 1192 ± 3.2 kg/m3
mass density (322.31 K, 30000 kPa): 1196.2 ± 3.8 kg/m3
mass density (322.33 K, 5000 kPa): 1185.4 ± 2.2 kg/m3
mass density (322.83 K, 101.33 kPa): 1182.9 ± 2.5 kg/m3
mass density (332.53 K, 101.33 kPa): 1175.8 ± 2.5 kg/m3
mass density (342.72 K, 101.33 kPa): 1168.6 ± 2.4 kg/m3
mass density (352.31 K, 10000 kPa): 1166.5 ± 2.4 kg/m3
mass density (352.32 K, 101.33 kPa): 1161.7 ± 2.4 kg/m3
mass density (352.32 K, 5000 kPa): 1164.1 ± 2.1 kg/m3
mass density (352.32 K, 20000 kPa): 1171.1 ± 2.9 kg/m3
mass density (352.32 K, 30000 kPa): 1175.7 ± 3.5 kg/m3
mass density (352.33 K, 1000 kPa): 1162.1 ± 1.9 kg/m3
mass density (352.33 K, 40000 kPa): 1180.01 ± 4.2 kg/m3
mass density (373.31 K, 5000 kPa): 1149.4 ± 2 kg/m3
mass density (373.31 K, 20000 kPa): 1156.8 ± 2.8 kg/m3
mass density (373.32 K, 101.33 kPa): 1146.9 ± 2.3 kg/m3
mass density (373.32 K, 10000 kPa): 1152 ± 2.3 kg/m3
mass density (373.33 K, 30000 kPa): 1161.6 ± 3.3 kg/m3
mass density (373.33 K, 40000 kPa): 1166.1 ± 3.9 kg/m3
mass density (373.34 K, 1000 kPa): 1147.3 ± 1.8 kg/m3
mass density (391.27 K, 1000 kPa): 1135 ± 1.8 kg/m3
mass density (391.29 K, 101.33 kPa): 1134.5 ± 2.2 kg/m3
mass density (391.29 K, 10000 kPa): 1139.7 ± 2.2 kg/m3
mass density (391.29 K, 20000 kPa): 1144.8 ± 2.7 kg/m3
mass density (391.29 K, 30000 kPa): 1149.7 ± 3.2 kg/m3
mass density (391.29 K, 40000 kPa): 1154.4 ± 3.7 kg/m3
mass density (391.31 K, 5000 kPa): 1137.1 ± 1.9 kg/m3
mass density (414.92 K, 101.33 kPa): 1116.5 ± 2.1 kg/m3
mass density (414.92 K, 5000 kPa): 1119.4 ± 1.8 kg/m3
mass density (414.92 K, 20000 kPa): 1127.4 ± 2.5 kg/m3
mass density (414.92 K, 40000 kPa): 1137.4 ± 3.4 kg/m3
mass density (414.93 K, 1000 kPa): 1117.1 ± 1.7 kg/m3
mass density (414.93 K, 10000 kPa): 1122.1 ± 2.1 kg/m3
mass density (414.93 K, 30000 kPa): 1132.5 ± 3 kg/m3

CCOS(=O)(=O)[O-].CCn1cc[n+](C)c1 [1-ethyl-3-methylimidazolium ethyl sulfate]
mass density (292.49 K, 101.33 kPa): 1242.1 ± 25 kg/m3
mass density (293.46 K, 10000 kPa): 1250.9 ± 25 kg/m3
mass density (293.46 K, 20000 kPa): 1259.3 ± 25 kg/m3
mass density (293.47 K, 1000 kPa): 1242.9 ± 25 kg/m3
mass density (293.47 K, 5000 kPa): 1246.5 ± 25 kg/m3
mass density (293.47 K, 30000 kPa): 1267.5 ± 26 kg/m3
mass density (293.48 K, 40000 kPa): 1275.4 ± 26 kg/m3
mass density (302.61 K, 101.33 kPa): 1236.7 ± 25 kg/m3
mass density (312.47 K, 101.33 kPa): 1230.7 ± 25 kg/m3
mass density (322.3 K, 101.33 kPa): 1224.4 ± 24 kg/m3
mass density (322.31 K, 1000 kPa): 1225.6 ± 24 kg/m3
mass density (322.31 K, 5000 kPa): 1229.5 ± 25 kg/m3
mass density (322.31 K, 20000 kPa): 1243.3 ± 25 kg/m3
mass density (322.31 K, 40000 kPa): 1260.6 ± 25 kg/m3
mass density (322.32 K, 10000 kPa): 1234.2 ± 25 kg/m3
mass density (322.33 K, 30000 kPa): 1252.1 ± 25 kg/m3
mass density (332.74 K, 101.33 kPa): 1218.4 ± 24 kg/m3
mass density (342.42 K, 101.33 kPa): 1212.6 ± 24 kg/m3
mass density (352.32 K, 101.33 kPa): 1206.3 ± 24 kg/m3
mass density (352.33 K, 1000 kPa): 1207.6 ± 24 kg/m3
mass density (352.33 K, 5000 kPa): 1211.8 ± 24 kg/m3
mass density (352.33 K, 10000 kPa): 1216.9 ± 24 kg/m3
mass density (352.34 K, 20000 kPa): 1226.7 ± 25 kg/m3
mass density (352.34 K, 30000 kPa): 1236 ± 25 kg/m3
mass density (352.34 K, 40000 kPa): 1245.2 ± 25 kg/m3
mass density (373.36 K, 101.33 kPa): 1194.1 ± 24 kg/m3
mass density (373.36 K, 1000 kPa): 1195 ± 24 kg/m3
mass density (373.36 K, 5000 kPa): 1199.4 ± 24 kg/m3
mass density (373.36 K, 10000 kPa): 1204.8 ± 24 kg/m3
mass density (373.36 K, 30000 kPa): 1225 ± 25 kg/m3
mass density (373.36 K, 40000 kPa): 1234.4 ± 25 kg/m3
mass density (373.37 K, 20000 kPa): 1215 ± 24 kg/m3
mass density (391.39 K, 101.33 kPa): 1183.2 ± 24 kg/m3
mass density (391.39 K, 1000 kPa): 1184.2 ± 24 kg/m3
mass density (391.39 K, 5000 kPa): 1188.8 ± 24 kg/m3
mass density (391.39 K, 10000 kPa): 1194.6 ± 24 kg/m3
mass density (391.39 K, 30000 kPa): 1215.4 ± 24 kg/m3
mass density (391.39 K, 40000 kPa): 1225.2 ± 25 kg/m3
mass density (391.41 K, 20000 kPa): 1205.1 ± 24 kg/m3
mass density (414.94 K, 10000 kPa): 1180.8 ± 24 kg/m3
mass density (414.94 K, 20000 kPa): 1192.1 ± 24 kg/m3
mass density (414.94 K, 30000 kPa): 1202.9 ± 24 kg/m3
mass density (414.95 K, 101.33 kPa): 1169.1 ± 23 kg/m3
mass density (414.95 K, 1000 kPa): 1170.2 ± 23 kg/m3
mass density (414.95 K, 5000 kPa): 1174.9 ± 24 kg/m3
mass density (414.95 K, 40000 kPa): 1213.2 ± 24 kg/m3

— the NIST ThermoML archive (doi:10.1021/je700224j)
